What was measured:
Assay type in all cases: physicochemical
[1] = Yellow coloration index measurement (ASTM E313), before thermal treatment; conditions: isosorbide solution with 100 ppm antioxidant, measured as a liquid at 65°C
Procedure: (§1) The yellow coloration index, expressed in YID units, was measured using a Colorflex EZ from Hunterlab according to ASTM E313. The spectrophotometer is a sealed optics, 256-elements diode array, having a 400-700 nm spectral range and a high-resolution concave holographic grating. 55 grams of composition are placed at 65°C, in a 64 mm diameter cylindric cell including a ring and white disk cap. The coloration of the composition was measured as a liquid at 65°C.

[2] = Thermal treatment test: yellow coloration index after heating; conditions: for Yellow coloration index After-Before: difference after minus before thermal test, 100 ppm antioxidant; for Yellow coloration index after thermal test: isosorbide solution with 100 ppm antioxidant, 245°C for 40 minutes under nitrogen
Procedure: as §1
(§2) The method hereafter is described for isosorbide as the chemical compound having at least one heterocycle, and is also applicable to any chemical compound having at least one heterocycle.
The thermal stability of compositions of isosorbide, was studied according to the following protocol: 70 g of a 80 wt% solution of isosorbide in water was placed in a three-necked round flask and inerted with high purity nitrogen (purity >99.9%) during 10 minutes at a flowrate of around 2000 mL/min. The product was then heated at 245°C using an oil bath for 40 minutes under a 500 mL/min nitrogen flowrate. Then the product was cooled down to 80°C under the same nitrogen flowrate and yellow coloration measurement (YID value) was measured immediately.
Coloration before and after "thermal treatment" as well as their difference is related to the product thermal stability, i.e. to the sensitivity of the product to oxidation.

[3] = PetroOxy test: induction time (resistance to oxidation)
Text: The resistance of compositions according to the invention to oxidation may indeed be characterized by this measurement called the "PetroOxy test" which consists in measuring over time the pressure inside a cell loaded with a sample of composition exposed to an initial pressure of dioxygen and a constant temperature. The protocol of this test is described below after.
as §2
3 grams of a purified 50 wt% dry matter isosorbide solution in distilled water with or without the addition of antioxidant are weighed precisely in a glass cup and then placed in the hermetic enclosure of the measuring device "PetroOxy" model 13-3002 from Petrotest, now Anton Paar GmbH. The air present in the cell is purged 3 times at room temperature with pure oxygen via a pressurized cylinder (Alphagas, purity >99.5%). The temperature and working pressure of pure oxygen is then set at 120°C and 700 kPa (7 bars) of oxygen. The pressure is continuously monitored during the experiment. The decrease in pressure in the test chamber is due to oxygen consumption during oxidation reactions of the sample studied. The variation in relative pressure during the experiment makes it possible to determine the time after which the sample begins its degradation by oxidation, which is called induction time, also referred as "OIT", under the test conditions.
The induction time of the sample is determined as follows:
The relative pressure of oxygen consumption is given by the relation (Pmax -Pt)/Pmax. Pmax is the maximum pressure attained by the system during the measurement, corresponding to the maximum pressure at the beginning of time, and Pt is the pressure as a function of time when oxygen is consumed. The induction time of the sample is given by the inflection point of the oxygen consumption curve, i.e. the intersection of the two linear domains as shown on figure Fig.1.
The longer the induction time, the greater the oxidation resistance of the sample. To calculate precisely this parameter, a calculation method by linear regression between the two-line segments before and after the inflection point is performed.

[4] = isosorbide aqueous solution with 100 ppm antioxidant, 120°C and 7 bars of oxygen
[5] = listed as 4,4'-dihydroxy-benzophenone

SMILES	Yellow coloration index before thermal test [1] [YID]	Yellow coloration index After-Before [2] [YID]	Yellow coloration index after thermal test [2] [YID]	Induction time [3, 4] [h]	Yellow coloration index before thermal test [1, 5]	Yellow coloration index after thermal test [2, 5]	% versus no antioxidant ([3]; change of induction time versus isosorbide solution without antioxidant (3.5 h), 100 ppm antioxidant)	Yellow coloration index after thermal test ([2]; listed as benzophenone)	Induction time (hours) ([3]; isosorbide aqueous solution with 100 ppm antioxidant, 120°C and 7 bars of oxygen, listed as 2-hydroxy-4-methoxy benzophenone)	Yellow coloration index after thermal test ([2]; listed as 2-hydroxy-4-methoxy-benzophenone)
CCCOC(=O)c1cc(O)c(O)c(O)c1 [Sample 3, Propyl gallate, reference compound]	9.1	5.2	14.3	–	–	–	–	–	–	–
COc1ccc(C(=O)c2ccccc2O)c(O)c1 [Sample 2.4, 2,2'-dihydroxy-4-methoxybenzophenone]	12.3	37	49.3	5.2	–	–	–	–	–	–
O=C(c1ccc(O)cc1)c1ccc(O)cc1 [Sample 2.2, 4,4'-dihydroxy-benzophenone]	4.2	5.1	9.3	3.9	lower than 10 YID	lower than 10 YID	–	–	–	–
O=C(c1ccccc1)c1ccccc1 [Sample 2.1, Benzophenone]	1.3	6.4	7.7	3.8	–	–	about 9%	lower than 10 YID	–	–
COc1ccc(C(=O)c2ccccc2)c(O)c1 [Sample 2.3, 2-hydroxy-4-methoxybenzophenone]	2.2	3.9	6.1	4.6	–	–	–	–	around 4,6 hours	below 7 YID

Source: patent EP4527906A1, “OXIDATION RESISTANT COMPOSITIONS OF DINAHYDROHEXITOLS CONTAINING BENZOPHENONE OR ITS DERIVATIVES” (ROQUETTE FRERES, priority 2023, dated 2025)
